Reference: PubChem BioAssay AID282 (DTP/NCI, 2004)
Several values for one entry are separate records, joined by “and”; a condition that tells them apart may be missing. Equal entries are not always repeated. Inconclusive results and toxic doses are left out.

Tested on: BDF1 mice, L1210 terephthalanilide-resistant leukemia ip, survival T/C
Test: NCI In Vivo Anticancer Drug Screen. Data for tumor model L1210 Leukemia resistant to A Terephthalanilide; NSC 38280 (intraperitoneal) in B6D2F1 (BDF1) mice
Settings: endpoint: mean survival time, higher = longer survival
Protocol: The antitumor activity of compounds was measured in mice bearing transplantable tumors. Survival or tumor size were measured and the results are expressed as the measurement made in the treated group (T) divided by the measurement made in the vehicle treated control group (C). The tumor model used in this assay is L1210 Leukemia resistant to A Terephthalanilide; NSC 38280 (intraperitoneal) in B6D2F1 (BDF1) mice

[1] = dose: 25.0 mg/kg/injection, schedule: Q01DX010 (ip), vehicle: saline
[2] = dose: 50.0 mg/kg/injection, schedule: Q01DX010 (ip), vehicle: saline
[3] = dose: 50.0 mg/kg/injection, schedule: Q01DX Z (ip), vehicle: saline
[4] = dose: 100.0 mg/kg/injection, schedule: Q01DX010 (ip), vehicle: saline
[5] = dose: 100.0 mg/kg/injection, schedule: Q01DX Z (ip), vehicle: saline
[6] = dose: 500.0 mg/kg/injection, schedule: Q01DX Z (ip), vehicle: saline
[7] = dose: 20.0 mg/kg/injection, schedule: Q01DX010 (ip), vehicle: saline
[8] = dose: 31.3 mg/kg/injection, schedule: Q01DX010 (ip), vehicle: saline
[9] = dose: 62.5 mg/kg/injection, schedule: Q01DX010 (ip), vehicle: saline
[10] = dose: 125.0 mg/kg/injection, schedule: Q01DX010 (ip), vehicle: saline
[11] = dose: 250.0 mg/kg/injection, schedule: Q01DX010 (ip), vehicle: saline

**Q.** `C=CC(CN1CC1)OC(C)=O` (stereo unspecified) was tested. Which T/C (dose: 2.0 mg/kg/injection, schedule: Q01DX010 (ip), vehicle: saline) did it give?
**A.** 101 % of control

**Q.** And the T/C (dose: 4.0 mg/kg/injection, schedule: Q01DX010 (ip), vehicle: saline)?
**A.** 119 % of control

**Q.** And the T/C (dose: 16.0 mg/kg/injection, schedule: Q01DX010 (ip), vehicle: saline)?
**A.** 114 % of control

**Q.** What does the source list for `COS(C)(=O)=O`?
**A.** T/C (dose: 12.5 mg/kg/injection, schedule: Q01DX010 (ip), vehicle: saline): 93 % of control; T/C [1]: 101 % of control; T/C (dose: 25.0 mg/kg/injection, schedule: Q01DX Z (ip), vehicle: saline): 95 % of control; T/C [2]: 102 % of control; T/C [3]: 101 % of control; T/C (dose: 75.0 mg/kg/injection, schedule: Q01DX Z (ip), vehicle: saline): 106 % of control; T/C [4]: 100 % of control; T/C [5]: 106 % of control

**Q.** How did the T/C (dose: 375.0 mg/kg/injection, schedule: Q01DX Z (ip), vehicle: saline) turn out when `C[C@H](N)C(=O)N[C@@H]1[C@H]2C(=C(O)C[C@@H](O)[C@@H]2O)C(=O)O[C@@H]1C` was run?
**A.** 156 % of control

**Q.** And the T/C [6]?
**A.** 170 % of control

**Q.** And the T/C (dose: 750.0 mg/kg/injection, schedule: Q01DX Z (ip), vehicle: saline)?
**A.** 202 % of control

**Q.** `C[n+]1ccc(NC(=O)c2ccc(NC(=O)c3cccc(C(=O)Nc4ccc(C(=O)Nc5cc[n+](C)cc5)cc4)c3)cc2)cc1` was tested. Which T/C (dose: 5.0 mg/kg/injection, schedule: Q01DX010 (ip), vehicle: saline) did it give?
**A.** 87 % of control

**Q.** What about the T/C [7] of the same compound?
**A.** 116 % of control

**Q.** `NC12CC3CC(CC(C3)C1)C2` was tested. Which T/C [1] did it give?
**A.** 108 % of control

**Q.** What about the T/C [2] of the same compound?
**A.** 106 % of control

**Q.** And the T/C [4]?
**A.** 101 % of control

**Q.** Which results are given for `CCCSc1ncnc2nc[nH]c12`?
**A.** T/C [8]: 95 % of control and 99 % of control; T/C (dose: 44.0 mg/kg/injection, schedule: Q01DX Z (ip), vehicle: other): 96 % of control; T/C [9]: 106 % of control and 111 % of control; T/C (dose: 87.5 mg/kg/injection, schedule: Q01DX Z (ip), vehicle: other): 121 % of control; T/C [10]: 100 % of control and 111 % of control

**Q.** For `O=c1[nH]c(=O)n(C2CC(O)C(CO)O2)cc1Br` (stereo unspecified), which T/C (dose: 62.5 mg/kg/injection, schedule: Q01DX Z (ip), vehicle: carboxymethylcellulose (CMC)) is on record?
**A.** 110 % of control

**Q.** And the T/C (dose: 500.0 mg/kg/injection, schedule: Q01DX Z (ip), vehicle: carboxymethylcellulose (CMC))?
**A.** 119 % of control

**Q.** Which T/C (dose: 12.5 mg/kg/injection, schedule: Q01DX010 (sc), vehicle: steriod suspending solution) does the source give for `CC/C(=C(/CC)c1ccc(O)cc1)c1ccc(O)cc1` here?
**A.** 96 % of control and 102 % of control

**Q.** And the T/C (dose: 25.0 mg/kg/injection, schedule: Q01DX010 (sc), vehicle: steriod suspending solution)?
**A.** 89 % of control and 102 % of control

**Q.** What about the T/C (dose: 50.0 mg/kg/injection, schedule: Q01DX010 (sc), vehicle: steriod suspending solution) of the same compound?
**A.** 102 % of control and 103 % of control

**Q.** And the T/C (dose: 100.0 mg/kg/injection, schedule: Q01DX010 (sc), vehicle: steriod suspending solution)?
**A.** 96 % of control and 98 % of control

**Q.** For `CNc1nc(Nc2ccc(C3=NCCN3)cc2)nc(Nc2ccc(C3=NCCN3)cc2)n1`, which T/C (dose: 13.3 mg/kg/injection, schedule: Q01DX010 (ip), vehicle: saline) is on record?
**A.** 100 % of control

**Q.** What about the T/C [7] of the same compound?
**A.** 94 % of control

**Q.** And the T/C (dose: 30.0 mg/kg/injection, schedule: Q01DX010 (ip), vehicle: saline)?
**A.** 99 % of control

**Q.** And the T/C (dose: 45.0 mg/kg/injection, schedule: Q01DX010 (ip), vehicle: saline)?
**A.** 97 % of control

**Q.** For `O=C1CCC(N2C(=O)c3ccccc3C2=O)C(=O)N1` (stereo unspecified), which T/C [8] is on record?
**A.** 94 % of control

**Q.** What about the T/C [9] of the same compound?
**A.** 96 % of control

**Q.** What about the T/C [10] of the same compound?
**A.** 94 % of control

**Q.** What about the T/C [11] of the same compound?
**A.** 100 % of control

**Q.** Which T/C (dose: 1.88 mg/kg/injection, schedule: Q01DX010 (ip), vehicle: saline) does the source give for `O=C(Nc1ccc(C(=O)Nc2ccc(C3=NCCCN3)cc2)cc1)Nc1ccc(C2=NCCCN2)cc1` here?
**A.** 93 % of control and 108 % of control

**Q.** And the T/C (dose: 3.75 mg/kg/injection, schedule: Q01DX010 (ip), vehicle: saline)?
**A.** 95 % of control and 114 % of control

**Q.** And the T/C (dose: 7.5 mg/kg/injection, schedule: Q01DX010 (ip), vehicle: saline)?
**A.** 122 % of control and 119 % of control

**Q.** What about the T/C (dose: 15.0 mg/kg/injection, schedule: Q01DX010 (ip), vehicle: saline) of the same compound?
**A.** 117 % of control

**Q.** `CCOC(N)=O` was tested. Which T/C [3] did it give?
**A.** 107 % of control

**Q.** What about the T/C [5] of the same compound?
**A.** 93 % of control

**Q.** And the T/C [10]?
**A.** 100 % of control and 103 % of control

**Q.** And the T/C (dose: 200.0 mg/kg/injection, schedule: Q01DX Z (ip), vehicle: saline)?
**A.** 106 % of control

**Q.** And the T/C [11]?
**A.** 100 % of control and 103 % of control

**Q.** And the T/C (dose: 400.0 mg/kg/injection, schedule: Q01DX Z (ip), vehicle: saline)?
**A.** 106 % of control

**Q.** What about the T/C (dose: 500.0 mg/kg/injection, schedule: Q01DX010 (ip), vehicle: saline) of the same compound?
**A.** 99 % of control and 101 % of control

**Q.** What about the T/C [6] of the same compound?
**A.** 96 % of control

**Q.** What about the T/C (dose: 1000.0 mg/kg/injection, schedule: Q01DX Z (ip), vehicle: saline) of the same compound?
**A.** 91 % of control
